Values after ≈ are worked out from the molar mass of the structure shown.
Experiments:
MRSA ATCC33591 = assay: MIC, broth microdilution, MRSA ATCC33591; type: cell-based; settings: Staphylococcus aureus; broth microdilution (CLSI), MHB + 0.01% polysorbate 80; five independent experiments ± s.d. (n = 5)
Experimental: (§1) MIC[18] was tested by broth microdilution according to CLSI guidelines. The state of all teixobactin analogs is amorphous, and the compounds are in the salt form of trifluoroacetates. Analogs were stored in DMSO in the concentration of 10 mg/ml. The test medium for most species of bacteria was cation adjusted Mueller–Hinton Broth containing 0.01% polysorbate 80 to prevent analogs binding to plastic surfaces. […] For the test of Streptococci, MHB contains 3% lysed horse blood (Cleveland Scientific, Bath, OH). The concentration of cell was ~5 × 10^5 cells ml^−1. […] Besides the standard strains from ATCC, all the clinical isolates are from 302 hospital. The assay was done three times to confirm results (n = 3).

E. faecalis TH4132 = assay: MIC, broth microdilution, E. faecalis TH4132; type: cell-based, Enterococcus faecalis; settings: for MIC, E. faecalis TH4132: broth microdilution, 0.01% polysorbate 80
Experimental: as §1

E. faecalis TH4130 = assay: MIC, broth microdilution, E. faecalis TH4130; type: cell-based, Enterococcus faecalis; settings: for MIC, E. faecalis TH4130: broth microdilution, 0.01% polysorbate 80
Experimental: as §1

E. faecalis TH4126 = assay: MIC, broth microdilution, E. faecalis TH4126; type: cell-based, Enterococcus faecalis; settings: for MIC, E. faecalis TH4126: broth microdilution, 0.01% polysorbate 80
Experimental: as §1

S. aureus ATCC29213 = assay: MIC, broth microdilution, S. aureus ATCC29213; type: cell-based; settings: Staphylococcus aureus, broth microdilution (CLSI), MHB + 0.01% polysorbate 80, five independent experiments ± s.d. (n = 5)
Experimental: as §1

S. aureus TH4112 = assay: MIC, broth microdilution, S. aureus TH4112; type: cell-based, Staphylococcus aureus; settings: for MIC, S. aureus TH4112: broth microdilution, 0.01% polysorbate 80
Experimental: as §1

VRE TH4939 = assay: MIC, broth microdilution, VRE TH4939; type: cell-based, vancomycin resistant Enterococcus faecalis; settings: for MIC, VRE TH4939: broth microdilution, 0.01% polysorbate 80
Experimental: as §1

MRSA BAA-1695 = assay: MIC, broth microdilution, MRSA BAA-1695; type: cell-based, Staphylococcus aureus; settings: for MIC, MRSA BAA-1695: broth microdilution, 0.01% polysorbate 80
Experimental: as §1

E. faecalis ATCC29212 = assay: MIC, broth microdilution, E. faecalis ATCC29212; type: cell-based, Enterococcus faecalis; settings: for MIC, E. faecalis ATCC29212: broth microdilution, 0.01% polysorbate 80
Experimental: as §1

VRE TH4937 = assay: MIC, broth microdilution, VRE TH4937; type: cell-based, vancomycin resistant Enterococcus faecalis; settings: for MIC, VRE TH4937: broth microdilution, 0.01% polysorbate 80
Experimental: as §1

MRSA TH4115 = assay: MIC, broth microdilution, MRSA TH4115; type: cell-based, Staphylococcus aureus; settings: for MIC, MRSA TH4115: broth microdilution, 0.01% polysorbate 80
Experimental: as §1

MRSA ATCC 33591 = assay: Neutropenic mouse thigh infection model; settings: 50 mg /kg i.v., 2 h post infection
S. pneumoniae D39 = assay: Mouse septicemia protection model; settings: for survival number: 5 mg/kg i.v., 6 mice per group
MRSA = settings: ref J Med Chem, 2018, 61, 2009; cited from earlier work
From the text: page 6: Reply: Thanks for the reviewer’s kind comments. […] (please see the reference 34). In the paper published in Scientific Reports, they proposed that two teixobactin bind pyrophosphate-MurNAc and glutamic acid residue of one Lipid II respectively. Undeniably, this is an important discovery. Its structure model also explains experimental obervations that the pyrophosphate-MurNAc moiety is the minimal motif for binding. We selected the similar truncated lipid II i ...

[1] = Enterococcus, VRE, broth microdilution (CLSI), MHB + 0.01% polysorbate 80, 37 °C, 16–20 h, n = 3

## CC1(C)S[C@@H]2[C@H](NC(=O)[C@H](N)c3ccccc3)C(=O)N2[C@H]1C(=O)O [Ampicillin]
MRSA ATCC33591
  MIC: > 16 µg/mL
E. faecalis TH4132; Enterococcus faecalis, TH4132, broth microdilution (CLSI), MHB + 0.01% polysorbate 80, 37 °C, 16–20 h, n = 3
  MIC: 1 µg/mL
E. faecalis TH4132; replicate 1 (Source Data)
  MIC, E. faecalis TH4132: 1 µg/mL (≈ 2.86 µM)
E. faecalis TH4132; replicate 2 (Source Data)
  MIC, E. faecalis TH4132: 1 µg/mL (≈ 2.86 µM)
E. faecalis TH4132; replicate 3 (Source Data)
  MIC, E. faecalis TH4132: 1 µg/mL (≈ 2.86 µM)
E. faecalis TH4130; Enterococcus faecalis, TH4130, broth microdilution (CLSI), MHB + 0.01% polysorbate 80, 37 °C, 16–20 h, n = 3
  MIC: 16 µg/mL
E. faecalis TH4130; replicate 1 (Source Data)
  MIC, E. faecalis TH4130: 16 µg/mL (≈ 45.8 µM)
E. faecalis TH4130; replicate 2 (Source Data)
  MIC, E. faecalis TH4130: 16 µg/mL (≈ 45.8 µM)
E. faecalis TH4130; replicate 3 (Source Data)
  MIC, E. faecalis TH4130: 16 µg/mL (≈ 45.8 µM)
E. faecalis TH4126; Enterococcus faecalis, TH4126, broth microdilution (CLSI), MHB + 0.01% polysorbate 80, 37 °C, 16–20 h, n = 3
  MIC: > 32 µg/mL
E. faecalis TH4126; replicate 1 (Source Data)
  MIC, E. faecalis TH4126: >32 µg/mL
E. faecalis TH4126; replicate 2 (Source Data)
  MIC, E. faecalis TH4126: >32 µg/mL
E. faecalis TH4126; replicate 3 (Source Data)
  MIC, E. faecalis TH4126: >32 µg/mL
S. aureus ATCC29213
  MIC: 2 µg/mL
S. aureus TH4112; Staphylococcus aureus, TH4112, broth microdilution (CLSI), MHB + 0.01% polysorbate 80, 37 °C, 16–20 h, n = 3
  MIC: 0.5 µg/mL
S. aureus TH4112; replicate 1 (Source Data)
  MIC, S. aureus TH4112: 0.5 µg/mL (≈ 1.43 µM)
S. aureus TH4112; replicate 2 (Source Data)
  MIC, S. aureus TH4112: 0.5 µg/mL (≈ 1.43 µM)
S. aureus TH4112; replicate 3 (Source Data)
  MIC, S. aureus TH4112: 0.5 µg/mL (≈ 1.43 µM)
VRE TH4939; [1]
  MIC: > 32 µg/mL
VRE TH4939; replicate 1 (Source Data)
  MIC, VRE TH4939: >32 µg/mL
VRE TH4939; replicate 2 (Source Data)
  MIC, VRE TH4939: >32 µg/mL
VRE TH4939; replicate 3 (Source Data)
  MIC, VRE TH4939: >32 µg/mL
MRSA BAA-1695; Staphylococcus aureus, broth microdilution (CLSI), MHB + 0.01% polysorbate 80, 37 °C, 16–20 h, n = 3
  MIC: > 32 µg/mL
MRSA BAA-1695; replicate 1 (Source Data)
  MIC, MRSA BAA-1695: >32 µg/mL
MRSA BAA-1695; replicate 2 (Source Data)
  MIC, MRSA BAA-1695: >32 µg/mL
MRSA BAA-1695; replicate 3 (Source Data)
  MIC, MRSA BAA-1695: >32 µg/mL
E. faecalis ATCC29212; Enterococcus faecalis, ATCC29212, broth microdilution (CLSI), MHB + 0.01% polysorbate 80, 37 °C, 16–20 h, n = 3
  MIC: 1 µg/mL
E. faecalis ATCC29212; replicate 1 (Source Data)
  MIC, E. faecalis ATCC29212: 1 µg/mL (≈ 2.86 µM)
E. faecalis ATCC29212; replicate 2 (Source Data)
  MIC, E. faecalis ATCC29212: 1 µg/mL (≈ 2.86 µM)
E. faecalis ATCC29212; replicate 3 (Source Data)
  MIC, E. faecalis ATCC29212: 1 µg/mL (≈ 2.86 µM)
VRE TH4937; [1]
  MIC: > 32 µg/mL
VRE TH4937; replicate 1 (Source Data)
  MIC, VRE TH4937: >32 µg/mL
VRE TH4937; replicate 2 (Source Data)
  MIC, VRE TH4937: >32 µg/mL
VRE TH4937; replicate 3 (Source Data)
  MIC, VRE TH4937: >32 µg/mL
MRSA TH4115; Staphylococcus aureus, MRSA, broth microdilution (CLSI), MHB + 0.01% polysorbate 80, 37 °C, 16–20 h, n = 3
  MIC: 32 µg/mL
MRSA TH4115; replicate 1 (Source Data)
  MIC, MRSA TH4115: 32 µg/mL (≈ 91.6 µM)
MRSA TH4115; replicate 2 (Source Data)
  MIC, MRSA TH4115: 32 µg/mL (≈ 91.6 µM)
MRSA TH4115; replicate 3 (Source Data)
  MIC, MRSA TH4115: 32 µg/mL (≈ 91.6 µM)

## CN[C@H](CC(C)C)C(=O)N[C@H]1C(=O)N[C@@H](CC(N)=O)C(=O)N[C@H]2C(=O)N[C@H]3C(=O)N[C@H](C(=O)N[C@H](C(=O)O)c4cc(O)cc(O)c4-c4cc3ccc4O)[C@H](O)c3ccc(c(Cl)c3)Oc3cc2cc(c3O[C@@H]2O[C@H](CO)[C@@H](O)[C@H](O)[C@H]2O[C@H]2C[C@](C)(N)[C@H](O)[C@H](C)O2)Oc2ccc(cc2Cl)[C@H]1O [Vancomycin]
MRSA ATCC 33591; mouse 1
  Log C.F.U. / mouse thigh: 3.903 Log C.F.U. / mouse thigh
MRSA ATCC 33591; mouse 2
  Log C.F.U. / mouse thigh: 3.176 Log C.F.U. / mouse thigh
MRSA ATCC 33591; mouse 3
  Log C.F.U. / mouse thigh: 3.748 Log C.F.U. / mouse thigh
S. pneumoniae D39; 24 h post-infection
  survival number: 6
S. pneumoniae D39; 36 h post-infection
  survival number: 6
S. pneumoniae D39; 48 h post-infection
  survival number: 6
S. pneumoniae D39; single dose 5 mg kg^−1 i.v., 1 h post infection, positive control, six female mice per group
  Survival rate 48 h after infection: 100%

## Arg10-teixobactin
MRSA
  Loss of potency compared with teixobactin: more than 4 fold
  MIC against MRSA: 2 µg/mL

Source: article PMC6646333 (Nature Communications, 2019)
